Measurements taken from ChEMBL document CHEMBL1201862, “PubChem BioAssay data set” (2004).
Calls of active or inactive are those of the source.

Experiments:
Cytochrome P450 2C19 = Cytochrome P450 2C19 (Homo sapiens, UniProt P33261); assay: Cytochrome panel assay with activity outcomes. Panel member name: p450-cyp2c19 Compounds with AC50 equal or less than 10 uM are considered active; assay type: functional; conditions: read-out: AC50
Cytochrome P450 1A2 = target: T1, Cytochrome P450 1A2 (Homo sapiens, UniProt P05177);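 also: PubChem cytochrome P450 panel assay, CYP1A2 panel member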
T1 sequence (P05177 whole entry): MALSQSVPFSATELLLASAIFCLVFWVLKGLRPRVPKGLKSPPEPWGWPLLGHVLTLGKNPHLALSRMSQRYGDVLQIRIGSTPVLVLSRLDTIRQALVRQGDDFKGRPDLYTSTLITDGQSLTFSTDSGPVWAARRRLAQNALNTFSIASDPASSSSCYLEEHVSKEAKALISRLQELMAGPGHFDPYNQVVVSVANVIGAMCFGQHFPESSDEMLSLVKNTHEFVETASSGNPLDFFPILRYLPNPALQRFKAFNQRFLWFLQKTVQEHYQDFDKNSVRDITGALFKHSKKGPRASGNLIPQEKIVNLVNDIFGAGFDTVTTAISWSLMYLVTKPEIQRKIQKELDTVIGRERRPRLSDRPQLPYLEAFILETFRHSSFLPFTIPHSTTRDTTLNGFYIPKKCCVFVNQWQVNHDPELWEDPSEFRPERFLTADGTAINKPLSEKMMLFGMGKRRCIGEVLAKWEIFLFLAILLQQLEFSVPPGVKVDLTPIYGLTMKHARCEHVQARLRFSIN

Cytochrome P450 2C9 = Cytochrome P450 2C9 (Homo sapiens, UniProt P11712)
[1] = target: T2, Rac GTPase-activating protein 1 (Homo sapiens, UniProt Q9H0H5); assay: MgcRacGAP GTPase-activating activity inhibitors, confirmation, biochemical, ADP Hunter fluorescence, primary and confirmatory (AID 624330); assay type: functional
T2 sequence (Q9H0H5 whole entry): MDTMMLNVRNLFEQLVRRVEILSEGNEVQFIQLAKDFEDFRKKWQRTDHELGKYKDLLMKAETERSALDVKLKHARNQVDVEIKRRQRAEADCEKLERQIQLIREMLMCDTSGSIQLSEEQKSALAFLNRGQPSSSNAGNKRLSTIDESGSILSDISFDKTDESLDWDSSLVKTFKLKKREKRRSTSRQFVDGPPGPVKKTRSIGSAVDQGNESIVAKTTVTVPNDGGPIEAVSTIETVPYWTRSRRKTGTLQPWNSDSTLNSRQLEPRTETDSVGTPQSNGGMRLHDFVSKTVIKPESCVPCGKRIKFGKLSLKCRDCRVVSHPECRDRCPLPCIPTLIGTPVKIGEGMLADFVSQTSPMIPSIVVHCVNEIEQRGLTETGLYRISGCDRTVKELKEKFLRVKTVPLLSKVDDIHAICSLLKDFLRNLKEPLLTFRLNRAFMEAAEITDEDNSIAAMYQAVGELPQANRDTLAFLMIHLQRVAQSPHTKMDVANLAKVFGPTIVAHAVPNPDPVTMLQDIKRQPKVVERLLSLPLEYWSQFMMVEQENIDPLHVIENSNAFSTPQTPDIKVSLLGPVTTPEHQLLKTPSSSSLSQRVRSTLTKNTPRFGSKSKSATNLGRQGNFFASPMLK

H4 = assay: Luminescence Cell-Based Dose Response HTS to Identify Activators of 5'UTR Stem-Loop Driven Prion Protein mRNA Translation in H4 Neuroglioblastoma Cells. [Related pubchem assays: 1829 (Project Summary), 1814 (Primary HTS)]; assay type: functional; conditions: Homo sapiens
[2] = system: Streptococcus sp. 'group A'; assay: growth inhibition of control SK(-) GAS strain, dose response, counter-screen for streptokinase expression inhibitor project, luminescence, kanamycin, BacTiterGlo, confirmation (AID 1900); assay type: functional, organism-based
Streptokinase A = target: T3, Streptokinase A (Streptococcus pyogenes serotype M1, UniProt P10520); assay: S. pyogenes streptokinase expression inhibitors, potency, dose response, plasminogen activation absorbance, OD405 (AID 1914); assay type: functional, Streptococcus pyogenes M1 GAS;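 also: secreted streptokinase activity via plasminogen activation per viability signal from cell pellet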
T3 sequence (P10520 whole entry): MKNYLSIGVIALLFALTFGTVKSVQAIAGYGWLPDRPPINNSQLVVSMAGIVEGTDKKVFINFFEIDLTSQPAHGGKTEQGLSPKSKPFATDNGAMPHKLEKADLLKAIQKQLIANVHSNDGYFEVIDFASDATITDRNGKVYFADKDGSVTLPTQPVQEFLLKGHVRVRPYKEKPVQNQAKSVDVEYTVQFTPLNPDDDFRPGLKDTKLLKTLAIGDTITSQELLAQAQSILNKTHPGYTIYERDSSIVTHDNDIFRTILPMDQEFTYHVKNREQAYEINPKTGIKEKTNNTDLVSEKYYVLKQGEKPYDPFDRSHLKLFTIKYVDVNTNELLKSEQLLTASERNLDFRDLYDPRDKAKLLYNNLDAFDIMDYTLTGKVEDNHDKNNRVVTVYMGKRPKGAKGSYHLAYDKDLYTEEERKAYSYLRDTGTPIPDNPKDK

Streptococcus = assay: Group A Streptococcus viability loss, dose response, counter-screen for streptokinase expression inhibitor project, luminescence, BacTiterGlo (AID 1915); assay type: functional, organism-based;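 also: potency for reduction of bacterial viability or growth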
[3] = Luminescence Cell-Based Dose Retest to Confirm Inhibitors of Cancer Stem Cells. [Related pubchem assays (depositor defined):AID2717, AID2721]; assay type: functional; conditions: Homo sapiens
[4] = NIH-3T3 fibroblast cytotoxicity, dose response, cytotoxicity control, cell-based, fluorescence, Alamar Blue, secondary assay (AID 2327); assay type: functional;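 also: NIH-3T3 mouse fibroblasts cultured with fluconazole at 8 µg/mL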
[5] = C. albicans growth with fluconazole, confirmation, fluorescence, retest (AID 2467); assay type: functional, cell-based
Protein skinhead-1 = target: T4, Protein skinhead-1 (Caenorhabditis elegans, UniProt P34707); assay type: functional
T4 sequence (P34707 whole entry): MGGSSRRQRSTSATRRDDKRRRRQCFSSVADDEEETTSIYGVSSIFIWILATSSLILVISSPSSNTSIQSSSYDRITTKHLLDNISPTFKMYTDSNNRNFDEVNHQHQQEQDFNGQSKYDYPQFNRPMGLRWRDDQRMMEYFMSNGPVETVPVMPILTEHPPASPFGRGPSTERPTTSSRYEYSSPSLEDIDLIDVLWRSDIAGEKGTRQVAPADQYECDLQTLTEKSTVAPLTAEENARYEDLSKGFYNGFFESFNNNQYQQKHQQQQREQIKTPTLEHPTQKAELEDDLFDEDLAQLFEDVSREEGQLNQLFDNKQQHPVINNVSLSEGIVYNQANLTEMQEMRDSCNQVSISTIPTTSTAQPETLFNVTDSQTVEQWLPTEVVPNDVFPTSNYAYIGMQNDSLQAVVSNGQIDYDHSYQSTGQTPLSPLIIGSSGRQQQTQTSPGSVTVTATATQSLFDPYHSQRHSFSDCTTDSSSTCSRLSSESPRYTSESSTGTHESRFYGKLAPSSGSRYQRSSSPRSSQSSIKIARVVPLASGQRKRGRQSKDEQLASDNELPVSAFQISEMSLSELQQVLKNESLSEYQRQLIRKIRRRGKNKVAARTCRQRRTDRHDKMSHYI

Cytochrome P450 3A4 = Cytochrome P450 3A4 (Homo sapiens, UniProt P08684);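 also: CYP3A4 tested as one member of a cytochrome P450 panel screen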
[6] = Luminescence Cell-Based Dose Response HTS to Identify Activators of Luciferase Translation or Activity in H4 […] Cells. [Related pubchem assays: 1829 (Project Summary), 1814 (Primary HTS)]; assay type: functional
INS1 = assay: beta cell apoptosis inhibitors, cytokine rescue, dose response, luminescence, retest (AID 449756); assay type: functional, cell-based; conditions: Rattus norvegicus;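 also: cell death triggered by IL-1 beta plus TNF-alpha plus IFN-gamma mixture; protective hits raise ATP signal compared with cytokine alone wells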

Chain of Cytochrome P450 2C9 (P11712 whole entry): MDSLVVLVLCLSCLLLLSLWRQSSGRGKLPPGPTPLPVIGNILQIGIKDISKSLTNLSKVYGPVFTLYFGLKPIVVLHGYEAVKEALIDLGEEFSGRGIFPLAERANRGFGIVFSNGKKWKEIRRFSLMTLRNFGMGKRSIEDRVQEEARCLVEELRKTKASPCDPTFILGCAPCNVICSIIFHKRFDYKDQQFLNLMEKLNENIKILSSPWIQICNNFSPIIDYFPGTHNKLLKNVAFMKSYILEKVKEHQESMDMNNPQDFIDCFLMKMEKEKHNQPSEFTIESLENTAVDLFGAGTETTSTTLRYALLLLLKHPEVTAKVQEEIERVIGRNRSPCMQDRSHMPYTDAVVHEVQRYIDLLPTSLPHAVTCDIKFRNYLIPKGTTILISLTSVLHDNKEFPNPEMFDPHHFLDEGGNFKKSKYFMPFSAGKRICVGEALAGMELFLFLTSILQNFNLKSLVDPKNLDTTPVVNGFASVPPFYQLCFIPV
Chain of Cytochrome P450 2C19 (P33261 whole entry): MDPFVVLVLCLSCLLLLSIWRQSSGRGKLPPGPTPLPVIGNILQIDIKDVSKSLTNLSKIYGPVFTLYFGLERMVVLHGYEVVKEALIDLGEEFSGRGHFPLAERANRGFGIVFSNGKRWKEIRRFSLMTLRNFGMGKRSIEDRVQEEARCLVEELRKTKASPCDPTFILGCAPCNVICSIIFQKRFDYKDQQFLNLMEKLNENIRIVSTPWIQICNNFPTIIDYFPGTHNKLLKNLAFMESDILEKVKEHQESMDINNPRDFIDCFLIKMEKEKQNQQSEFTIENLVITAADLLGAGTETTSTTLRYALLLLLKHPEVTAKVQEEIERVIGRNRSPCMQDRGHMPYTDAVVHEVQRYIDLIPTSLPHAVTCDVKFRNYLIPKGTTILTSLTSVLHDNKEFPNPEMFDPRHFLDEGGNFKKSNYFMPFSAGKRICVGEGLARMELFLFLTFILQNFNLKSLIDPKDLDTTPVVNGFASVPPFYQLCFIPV
Chain of Cytochrome P450 3A4 (P08684 whole entry): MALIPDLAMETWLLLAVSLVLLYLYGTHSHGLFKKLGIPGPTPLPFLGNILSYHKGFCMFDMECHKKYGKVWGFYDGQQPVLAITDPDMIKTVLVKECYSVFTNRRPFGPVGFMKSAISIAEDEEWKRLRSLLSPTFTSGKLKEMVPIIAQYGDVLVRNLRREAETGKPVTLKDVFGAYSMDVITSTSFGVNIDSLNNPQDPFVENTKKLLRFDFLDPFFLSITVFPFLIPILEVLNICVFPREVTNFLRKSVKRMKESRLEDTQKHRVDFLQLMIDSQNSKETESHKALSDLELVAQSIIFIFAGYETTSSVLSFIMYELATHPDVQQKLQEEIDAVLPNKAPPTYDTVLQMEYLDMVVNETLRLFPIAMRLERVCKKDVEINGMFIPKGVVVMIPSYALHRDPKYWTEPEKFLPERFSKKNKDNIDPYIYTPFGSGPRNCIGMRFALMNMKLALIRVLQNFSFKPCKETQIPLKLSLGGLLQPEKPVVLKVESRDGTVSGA

For O=C(c1ccncc1)N1CCC2(CC1)CCN(C(c1ccccc1)c1ccccc1)CC2, the AC50 (Cytochrome P450 2C19) was 39.8 µM (inconclusive), the AC50 (Cytochrome P450 1A2) was 12.6 µM (inconclusive) and the AC50 (Cytochrome P450 2C9) was 12.6 µM (inconclusive).

For CCCS(=O)(=O)N1CCN(C2CCC(C)CC2)CC1 (stereo unspecified), the IC50 [1] was 232 µM (active).

For Cc1ccccc1/C=C/c1nc(O)c2ccccc2n1, the EC50 (H4) was 1.13 µM (active).

For COc1ccc(NCCC(O)c2ccc(Cl)cc2)cc1 (stereo unspecified), the IC50 [1] was 29.1 µM (active).

With CCOC(=O)C1CCCN(C2=NC(=O)/C(=C/c3ccc(O)c(OCC)c3)S2)C1 (stereo unspecified) the IC50 [1] was 26.5 µM (active).

In the case of C/C(NCc1ccco1)=C1\C(=O)NC(=O)N(c2ccccc2)C1=O, the AC50 (Cytochrome P450 2C9) is reported as 39.8 µM (inconclusive).

With CC(C)CC(=O)NC(N=C(S)Nc1sc2c(c1C#N)CCCC2)C(Cl)(Cl)Cl (stereo unspecified) the EC50 [2] was 3.06 µM (active), the EC50 (Streptokinase A) was 3.23 µM (active) and the EC50 (Streptococcus) was 6.32 µM (active). For the same molecule, the AC50 [3] was 0.974 µM (active).

For O=c1c(F)cn(C2CCCO2)c(=O)n1Cc1c(F)cccc1Cl (stereo unspecified), the EC50 [4] was > 150 µM (inactive) and the EC50 [5] was > 38 µM (not active).

For CSCC[C@H](N)C(=O)N1CCC(C(=O)N[C@@H](Cc2c[nH]c3ccccc23)C(=O)O)CC1, the IC50 (Protein skinhead-1) was > 100 µM (inactive).

For CCOC(=O)c1ccc(Oc2nc(NC(C)(C)C)nc(N(C)C)n2)cc1, the EC50 [4] was > 150 µM (inactive) and the EC50 [5] was > 38 µM (not active).

With Cc1ccc(C2(C)NC(=O)N(CC(=O)Nc3cc(C)on3)C2=O)cc1 (stereo unspecified) the AC50 (Cytochrome P450 3A4) was 25.1 µM (inconclusive) and the AC50 (Cytochrome P450 2C9) was 14.1 µM (inconclusive).

In the case of Nc1ccc(/N=N\c2ccc(-c3ccc(O)cc3)cc2)c2ccc(S(=O)(=O)O)cc12, the AC50 (Cytochrome P450 2C19) is reported as 6.31 µM (inconclusive) and the AC50 (Cytochrome P450 2C9) is reported as 5.01 µM (inconclusive).

In the case of O=c1cc(CN2CCOCC2)c2ccc(O)c(O)c2o1, the IC50 [1] is reported as 82.7 µM (active).

In the case of COc1cccc(C(=O)NNC(=O)c2ccccc2Br)c1, the EC50 [4] is reported as > 150 µM (inconclusive) and the EC50 [5] is reported as > 38 µM (not active).

In the case of Cn1c(SCc2ccccc2)nnc1-c1ccc2c(c1)OCO2, the EC50 [6] is reported as 95.9 µM (active) and the EC50 (H4) is reported as 29.8 µM (inconclusive).

In the case of COc1ccc(-c2cc(C(=O)N3CC4(C)CC3CC(C)(C)C4)no2)cc1 (stereo unspecified), the AC50 [3] is reported as 0.442 µM (active).

With Cc1ccc(NCCC(=O)c2ccc(Cl)cc2)cc1 the AC50 (Cytochrome P450 3A4) was 12.6 µM (inconclusive) and the AC50 (Cytochrome P450 2C9) was 3.98 µM (inconclusive).

For O=C(NCc1nc(-c2ccc(C(F)(F)F)cc2)no1)Nc1ccc(OC(F)(F)F)cc1, the AC50 [3] was 2.68 µM (active).

With Brc1ccc(CN2CCN(Cc3c[nH]c4ccccc34)CC2)cc1 the AC50 (INS1) was 6.68 µM (active).
